Experimental data as given in patent publication US20090136566A1, “THERAPEUTIC TRITERPENOIDS” (Regents of the University of Minnesota, priority 2006, published 2009).
Entries after “also recorded” stand apart in the source; their conditions may differ.

Tests used:
P19 stem cells = experiment: Sulforhodamine B cell proliferation/survival assay, P19 stem cells; type: cell-based, mouse; details: for % Control (quantity of surviving cells as percentage of DMSO-only control): P19 stem cells, 20 μg/ml, 48 h exposure; for inhibition of P19 cell growth (in words): single dose of 20 μg/ml, 48 hours
Description: FIG. 2 is a graph showing the results of dose-response studies comparing the effectiveness of extracts from four species of birch (B. papyrifera, B. kenaica, B. neoalaskana, and B. pendula) with betulinic acid (BetA) and betulin 3-caffeate (Bet3C). Concentrations of from 2.5 to 20 μg/ml were added to cultures of P19 stem cells for 48 h, and the numbers of surviving cells measured using sulforhodamine B assays.
(§1) Cell Proliferation Measurements: Sulforhodamine B assays (Skehan, P. et al. (1990). J. Natl. Cancer Inst. 82:1107-1112.) were conducted to measure the effects of compounds and extractives of interest on the proliferation of a number of different cell lines. Cell lines used include mouse P19 and human NT2-D1 stem cells, mouse K1735-M2 melanoma cells, human LNCaP and PC-3 prostate cancer cells, and human MCF-7 breast cancer cells. Other cell lines include normal human fibroblast BJ cells, human Caov-3 ovarian cancer cells, human U87 brain glioma cells, human HL-60 acute promyelocytic leukemia cells, human MOLT-4 acute lymphoblastic leukemia cells, human U937 histiocytic lymphoma cells, human MDA-MB-231 breast cancer cells, C2BBe1 cells (a clone of the human colorectal cell line Caco-2), human K562 chronic myeloid leukemia cells, human WM32-11 primary melanoma cells with radial growth phase-like phenotype (early primary melanoma), and human WM793 melanoma cells with vertical growth phase-like phenotype. Cells were seeded at a concentration of 2.5×10^4 cells/ml in 24-well plates, and allowed to recover for 2 days prior to drug addition. Test compounds were prepared in most instances as stock solutions in dimethylsulfoxide (DMSO). Compounds were then added to multiwell plates at final concentrations of […]. Control wells received an equivalent amount of vehicle (DMSO) only. After 1-3 days of incubation, the culture medium was decanted from each plate, and the cells fixed with cold (−10° C.) absolute methanol containing 1% acetic acid for at least 30 minutes. Subsequently, the methanol was decanted, and the plate air-dried. Sulforhodamine B (0.5% in 1% acetic acid) was added to each well, and the plate incubated at 35° C. for 1 hour. Plates were rinsed with 1% acetic acid, air-dried, and the bound dye eluted with 1 ml of 10 mM Tris buffer, pH 10. The absorbance was measured in a spectrophotometer at 540 nm; the amount of dye released is proportional to the number of cells present in the dish, and is a reliable indicator of cell proliferation.
A single dose of 20 μg/ml of either extract, pure compound, or a mixture of compounds, was added to cultures of P19 stem cells, and the growth of the cells measured after 48 hours of treatment (FIG. 1).
(§2) Stock solutions of compounds and extracts were diluted to 2 mg/ml in dimethylsulfoxide (DMSO), and subsequently added to samples at a final concentration of 20 μg/ml (10 μl/ml of a 2 mg/ml stock solution); controls received an equivalent amount of DMSO only (10 μl/ml). After 48 h, samples were fixed with methanol-acetic acid, and the quantity of surviving cells determined by sulforhodamine B staining methods (discussed above). The quantity of surviving cells is expressed as a percentage of the control (DMSO-only) cultures, which was set to 100%. […] Extracts and betulinic acid induce a relatively modest increase in the numbers of dead cells present the cultures (about 10-40%).

P19 cells = experiment: P19 cell death by propidium iodide labeling with flow cytometry; type: cell-based, mouse; details: 48 hours
Excerpt: FIG. 4 is a bar graph showing measurements of P19 cell death induced by extracts, betulinic acid (BetA) and betulin 3-caffeate (Bet3C). Because the reduction in cell numbers detected by sulforhodamine B assays could result from either an inhibition of cell proliferation or an induction of cell death (or a combination of both), propidium iodide labeling was used in conjunction with flow cytometry to detect dead and dying cells with compromised plasma membranes.
as §2

K1735-M2 melanoma cells = experiment: Sulforhodamine B cell proliferation assay, K1735-M2 melanoma cells; type: cell-based, mouse; details: 2.5-10 mg/ml, 48 h
Description: (§3) FIG. 3 is a bar graph showing a comparison of the effects of betulin 3-caffeate on other types of malignant cancer cell lines. P19 stem cells, K1735-M2 melanoma cells and MCF-7 breast cancer cells were treated with […] betulinic acid or betulin-3-caffeate for 48 h and cell quantity determined by sulforhodamine B assays.
as §1, with “After 1-3 days of incubation, the culture medium was decanted from each plate, and the cells fixed with cold (−10° C.) absolute methanol containing 1% acetic acid for at least 30 minutes. Subsequently, the methanol was decanted, and the plate air-dried. Sulforhodamine B (0.5% in 1% acetic acid) was added to each well, and the plate incubated at 35° C. for 1 hour. Plates were rinsed with 1% acetic acid, air-dried, and the bound dye eluted with 1 ml of 10 mM Tris buffer, pH 10.” left out

[1] = test system: MCF-7 breast cancer cells; experiment: Sulforhodamine B cell proliferation assay, MCF-7 breast cancer cells; type: cell-based, human; details: 2.5-10 mg/ml, 48 h
Description: as §3
as §1, with “After 1-3 days of incubation, the culture medium was decanted from each plate, and the cells fixed with cold (−10° C.) absolute methanol containing 1% acetic acid for at least 30 minutes. Subsequently, the methanol was decanted, and the plate air-dried. Sulforhodamine B (0.5% in 1% acetic acid) was added to each well, and the plate incubated at 35° C. for 1 hour. Plates were rinsed with 1% acetic acid, air-dried, and the bound dye eluted with 1 ml of 10 mM Tris buffer, pH 10.” left out

[2] = Light absorption analysis by UV-VIS spectrophotometer; type: physicochemical; details: for Light absorption range (λ, nm): UV-VIS spectrophotometer
Excerpt: Sunscreens block the cutaneous absorption of UV radiation at 280-315 nm.

Compound	% Control (quantity of surviving cells as percentage of DMSO-only control) (P19 stem cells)	inhibition of P19 cell growth (in words) (P19 stem cells)	Light absorption range (λ, nm) [2]	ε (molar extinction coefficient) ([2]; at λmax 220)	ε (molar extinction coefficient) ([2]; at λmax 245)	ε (molar extinction coefficient) ([2]; at λmax 305)	ε (molar extinction coefficient) ([2]; at λmax 325)	other results
O=C(O)CCCCCCCCCCCCCCCCCCCCC(=O)O [Sample 9, Docosandioic acid]	61.5%	–	–	–	–	–	–	–
O=C(O)CCCCCCCCCCCCCCCCCCCCCO [Sample 12, 22-hydroxydocosanoic acid]	51.4%	–	–	–	–	–	–	–
O=C(O)CCCCCCC/C=C\CCCCCCCCO [Sample 13, Cis-18-hydroxyoctadec-9-enoic acid]	65.9%	–	–	–	–	–	–	–
C=C(C)[C@@H]1CC[C@]2(C(=O)O)CC[C@]3(C)C(CC[C@@H]4[C@@]5(C)CC[C@H](O)C(C)(C)C5CC[C@]43C)C12 (stereo partly drawn) [Sample 14, 3(β)-hydroxy-20(29)-lupaene-28-oic acid, reference compound]	1.3%	–	–	–	–	–	–	inhibition of P19 cell growth (in words) (P19 stem cells; listed as betulinic acid): even more profoundly inhibited cell growth; also recorded: among the most active compounds in inhibiting cell proliferation; increase in the quantity of dead cells present in the cultures (P19 cells): 10-40%; inhibition of M2 melanoma cell growth (in words) (K1735-M2 melanoma cells): significantly inhibited; inhibition of MCF-7 breast cancer cell growth (in words) [1]: do not appear to be as sensitive
CC1(C)CC[C@]2(C(=O)O)CC[C@]3(C)C(=CC[C@@H]4[C@@]5(C)CC[C@H](O)C(C)(C)[C@@H]5CC[C@]43C)[C@@H]2C1 [Sample 15, Oleanolic acid]	22.3%	less effective	–	–	–	–	–	–
C=C(C)[C@@H]1CC[C@]2(C)CC[C@]3(C)[C@H](CC[C@@H]4[C@@]5(C)CC[C@H](O)C(C)(C)[C@@H]5CC[C@]43C)[C@@H]12 [Sample 16, Lupeol]	58.9%	less effective	–	–	–	–	–	–
C=C(C)[C@@H]1CC[C@]2(CO)CC[C@]3(C)C(CC[C@@H]4[C@@]5(C)CC[C@H](O)C(C)(C)C5CC[C@]43C)C12 (stereo partly drawn) [Sample 17, 3β,28-dihydroxy-lup-20(29)-ene]	14.8%	less effective	–	–	–	–	–	–
C=C(C)[C@@H]1CC[C@]2(COC(=O)/C=C/c3ccc(O)c(O)c3)CC[C@]3(C)[C@H](CC[C@@H]4[C@@]5(C)CC[C@H](OC(=O)/C=C/c6ccc(O)c(O)c6)C(C)(C)[C@@H]5CC[C@]43C)[C@@H]12 [betulin-3,28-dicaffeate]	–	–	200-350 nm	13978	10018	13341	15375	–
C=C(C)[C@@H]1CC[C@]2(CO)CC[C@]3(C)[C@H](CC[C@@H]4[C@@]5(C)CC[C@H](OC(=O)/C=C/c6ccc(O)c(O)c6)C(C)(C)[C@@H]5CC[C@]43C)[C@@H]12 [betulin-3-caffeate, (3β)-3-Caffeyloxylup-20(29)-en-28-ol]	1.2%	even more profoundly inhibited cell growth	210-360 nm	2280	1795	2575	2865	inhibition of P19 stem cell growth in dose response studies (in words) (P19 stem cells; 2.5 to 20 μg/ml, 48 h): more effectively inhibits P19 stem cell growth; potency in inhibiting growth of P19 cells relative to betulinic acid (P19 stem cells; concentrations of 5-10 μg/ml, 48 h): 4 to 5 fold; inhibition of P19 cell growth (in words) (P19 stem cells; listed as betulin 3-caffeate): among the most active compounds in inhibiting cell proliferation; increase in the quantity of dead cells present in the cultures (P19 cells): ~200%; inhibition of M2 melanoma cell growth (in words) (K1735-M2 melanoma cells): significantly inhibited; effectiveness in inhibiting cell growth compared with betulinic acid (in words) (K1735-M2 melanoma cells; K1735-M2 melanoma cells): more effective in inhibiting cell growth than betulinic acid; inhibition of MCF-7 breast cancer cell growth (in words) [1]: do not appear to be as sensitive; effectiveness in inhibiting cell growth compared with betulinic acid (in words) ([1]; MCF-7 cells): more effective in inhibiting cell growth than betulinic acid
C=C(C)[C@@H]1CC[C@]2(COC(=O)/C=C/c3ccc(O)c(O)c3)CC[C@]3(C)[C@H](CC[C@@H]4[C@@]5(C)CC[C@H](O)C(C)(C)[C@@H]5CC[C@]43C)[C@@H]12 [betulin-28-caffeate]	–	–	210-360 nm	1300	875	1190	1380	–
Hydroxyoctadecanoic acid [Sample 10]	82.6%	–	–	–	–	–	–	–
Treo-hydroxyoctadecanoic acid [Sample 11]	67.3%	–	–	–	–	–	–	–
betulin 3,28,30-tricaffeate	–	–	210-360 nm	1230	882	1174	1353	–
